From ChEMBL document CHEMBL6134780, “Halogenated retinoid derivatives as dual RARα and RXRα modulators for treating acute promyelocytic leukemia cells” (Eur J Med Chem, 2024) come the findings set out here.

Experiment [1] deals with Retinoic acid receptor RXR-alpha (Homo sapiens, UniProt P19793). Kind of experiment: Binding affinity to N-terminal His-tagged human RXRalpha LBD extracted from Escherichia coli BL21 (DE3) cells assessed as dissociation constant by fluorescence quenching assay.
A short description of experiment [2]: Cell cycle arrest in human ATRA-resistant NB4-LR2 cells assessed as accumulation of cells at G0/G1 phase at 1 uM incubated for 12 hrs by DAPI staining based flow cytometric analysis (reference value: 42 %). It is filed as functional. On the technique in general: In flow cytometry, cells or beads pass a laser one at a time.
Experiment [3] is described as follows: Cell cycle arrest in human ATRA-resistant NB4-LR2 cells assessed as accumulation of cells at G2/M phase at 1 uM incubated for 12 hrs by DAPI staining based flow cytometric analysis (reference value: 28 %). In kind it is functional.
For experiment [4], the system named is NB-4. The experiment can be described thus: Cell cycle arrest in human NB4 cells assessed as accumulation of cells at sub-G1 phase at 1 uM incubated for 12 hrs by DAPI staining based flow cytometric analysis (reference value: 2 %). It is filed as functional.
Experiment [5] in a line: Cell cycle arrest in human ATRA-resistant NB4-LR2 cells assessed as accumulation of cells at sub-G1 phase at 1 uM incubated for 12 hrs by DAPI staining based flow cytometric analysis (reference value: 18 %). It is filed as functional.
Experiment [6] concerns NB-4. The experiment can be described thus: Antiproliferative activity against human NB4 cells assessed as inhibition of cell viability incubated for 3 days by CCK8 assay. It is filed as functional, cell-based. The settings on record: dose <= 3.5 µM, time 3.0 day. On the technique in general: Tetrazolium assays rely on reduction of a dye to a coloured formazan, in cell work by metabolically active cells.

A short description of experiment [7]: Cell cycle arrest in human ATRA-resistant NB4-LR2 cells assessed as accumulation of cells at S phase at 1 uM incubated for 12 hrs by DAPI staining based flow cytometric analysis (reference value: 12 %). It is filed as functional.
Experiment [8] deals with NB-4. The experiment can be described thus: Cell cycle arrest in human NB4 cells assessed as accumulation of cells at G0/G1 phase at 1 uM incubated for 12 hrs by DAPI staining based flow cytometric analysis (reference value: 51 %). In kind it is functional.
Experiment [9] is described as follows: Induction of apoptosis in human ATRA-resistant NB4-LR2 cells assessed as early apoptotic cells at 1 uM incubated for 24 hrs by Annexin V-FITC/PI staining based flow cytometric analysis (reference value: 1.41 %). In kind it is functional.
Experiment [10] deals with NB-4. The experiment can be described thus: Cell cycle arrest in human NB4 cells assessed as accumulation of cells at G2/M phase at 1 uM incubated for 12 hrs by DAPI staining based flow cytometric analysis (reference value: 26 %). It is filed as functional.
In experiment [11] the target is T1, Retinoic acid receptor alpha (Homo sapiens) (UniProt P10276).
T1 sequence (whole entry): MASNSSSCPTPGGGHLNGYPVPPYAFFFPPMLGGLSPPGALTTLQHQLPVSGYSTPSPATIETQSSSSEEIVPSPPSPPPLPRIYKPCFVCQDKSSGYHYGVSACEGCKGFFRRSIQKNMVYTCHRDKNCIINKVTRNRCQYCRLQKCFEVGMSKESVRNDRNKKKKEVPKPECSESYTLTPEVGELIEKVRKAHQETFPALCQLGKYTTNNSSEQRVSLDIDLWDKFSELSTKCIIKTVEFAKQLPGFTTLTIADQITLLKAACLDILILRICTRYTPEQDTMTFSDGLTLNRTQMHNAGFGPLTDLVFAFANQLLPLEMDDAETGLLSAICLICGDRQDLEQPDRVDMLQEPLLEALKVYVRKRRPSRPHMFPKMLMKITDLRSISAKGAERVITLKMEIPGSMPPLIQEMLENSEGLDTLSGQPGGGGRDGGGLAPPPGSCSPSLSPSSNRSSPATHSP
Kind of experiment: Agonist activity at full length RARalpha LBD (unknown origin) transfected in HEK293T cells co-transfected with pG5luc reporter and Renilla-luc assessed as transactivation at 0.5 to 1 uM incubated for 12 hrs by luciferase reporter gene assay. It is filed as cell-based. The settings on record: filed as agonist, dose 0.5-1 µM. (A reporter such as luciferase makes a cellular process visible.)

Experiment [12] deals with NB-4. The experiment can be described thus: Antiproliferative activity against human NB4 cells assessed as inhibition of cell viability up to 2 uM incubated for 3 days by CCK8 assay relative to control. In kind it is functional. The conditions noted are these: time 3 day.
Experiment [13] relates to NB-4. Kind of experiment: Induction of apoptosis in human NB4 cells assessed as early apoptotic cells at 1 uM incubated for 24 hrs by Annexin V-FITC/PI staining based flow cytometric analysis (reference value: 1.77 %). In kind it is functional.
In experiment [14] the test system is NB-4. The experiment can be described thus: Induction of apoptosis in human NB4 cells assessed as late apoptotic cells at 1 uM incubated for 24 hrs by Annexin V-FITC/PI staining based flow cytometric analysis (reference value: 2.23 %). In kind it is functional.
Experiment [15] concerns NB-4. The experiment can be described thus: Cell cycle arrest in human NB4 cells assessed as accumulation of cells at S phase at 1 uM incubated for 12 hrs by DAPI staining based flow cytometric analysis (reference value: 20 %). In kind it is functional.
In experiment [16] the test system is NB-4. The experiment can be described thus: Antiproliferative activity against human NB4 cells assessed as inhibition of cell viability at 0.125 uM incubated for 3 days by CCK8 assay relative to control. In kind it is functional. The settings on record: NB-4, 72 h, time 3 day.
The subject of experiment [17] is NB-4. Kind of experiment: Induction of cell differentiation in human NB4 cells assessed as NBT positive cells at 0.5 uM incubated for 6 days by Nitro Blue tetrazolium chloride based microscopic analysis (reference value: 0 %). It is filed as functional. The settings on record: time 6 day.
Experiment [18] is described as follows: Induction of apoptosis in human ATRA-resistant NB4-LR2 cells assessed as late apoptotic cells at 1 uM incubated for 24 hrs by Annexin V-FITC/PI staining based flow cytometric analysis (reference value: 5.62 %). It is filed as functional.

Sequence of Retinoic acid receptor RXR-alpha (P19793 whole entry, the tested form may be a part): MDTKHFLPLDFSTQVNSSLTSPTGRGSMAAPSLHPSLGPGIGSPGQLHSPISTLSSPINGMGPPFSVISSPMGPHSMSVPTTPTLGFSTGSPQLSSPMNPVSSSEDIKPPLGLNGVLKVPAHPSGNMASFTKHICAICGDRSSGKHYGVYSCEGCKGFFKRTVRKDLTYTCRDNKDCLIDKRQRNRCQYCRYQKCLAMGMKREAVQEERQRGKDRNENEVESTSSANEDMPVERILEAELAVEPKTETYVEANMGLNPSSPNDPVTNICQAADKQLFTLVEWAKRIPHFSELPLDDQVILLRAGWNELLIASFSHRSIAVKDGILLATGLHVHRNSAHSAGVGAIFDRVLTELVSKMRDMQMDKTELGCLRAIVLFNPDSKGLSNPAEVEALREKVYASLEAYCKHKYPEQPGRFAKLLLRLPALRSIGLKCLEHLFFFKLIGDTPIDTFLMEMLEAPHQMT

The Kd is the equilibrium constant for the complex coming apart. For the molecule `Cc1cc2c(cc1-c1cc(/C=C/C(=O)O)ccc1O)C(C)(C)CCC2(C)C`, the Kd in experiment [1] stood at 549 nM.

Broadly, the inhibition is the percentage by which the read-out fell short of the control. Turning to `Cc1cc2c(cc1C(=O)/C(Cl)=C/c1ccc(C(=O)O)cc1)C(C)(C)CCC2(C)C`, the Activity in experiment [2] is 7%; in experiment [3] it was 66%; with NB-4 [4] it was 4%; in experiment [5], 19%; with NB-4 [6], “Dose-dependent-effect”; in experiment [7], 8%. Moreover, the Activity is on record as 43% with NB-4 [8]; 24.72% in experiment [9]; 41% with NB-4 [10]; “Active; Highly Raralpha Selective Agonistic Activity Observed” in experiment [11]; 27.43% in the experiment on NB-4 [13]; 21.24% in the experiment with NB-4 [14]. Besides, the figures for the Activity (with NB-4 [15]; with NB-4 [17]; in [18]) were 12%, 15% and 17.39%, respectively. Besides, in the experiment with NB-4 [12], the “inhibition (INH)” value worked out at 100%. Besides, in the experiment on NB-4 [16], the inhibition at 0.125 µM is about 10%.
